Earlier results, collected in patent US20210368800A1, “Quickly, easily, and economically creating and maintaining a low bio-load on surfaces that may be large and/or of complex contour and finish” (priority 2020, published 2021).

Key:
norovirus = details: at 50 ppm; electrolytically generated hypochlorous acid

OCl [hypochlorous acid, Hypochlorous Acid]
effective in eliminating coronavirus 0C43 (coronavirus 0C43): more than 99.999%
time to kill norovirus (norovirus): less than one
